In patent publication US7056936B2, “Synergistic combination” (Altana Pharma AG, priority 1998, dated 2006):

Columns and labels:
[1] = system: ovalbumin-sensitized/-challenged Brown-Norway rat; experiment: Late inflammatory airway reaction in the ovalbumin-sensitized/-challenged Brown-Norway rat (BAL); conditions: summary of the table; i.t.; Roflumilast 0.3 μmol/kg, Pumafentrine 3 μmol/kg, Salmeterol 3 pmol/kg [sic]
Experimental: Sensitization was done by simultaneous injection of Bordetella pertussis suspension i.p. and OVA/AHG suspension s.c. on day 1, 14 and 21. 28 days after start of sensitization, conscious Brown-Norway rats were challenged by inhalation of the aerosolized OVA solution for 1 h (˜20 ml/h). Non-challenged, only sensitized animals were used as baseline control. The drugs (thoroughly mixed with lactose) or the placebo control (lactose) were administered intratracheally (i.t.) as dry powders 1 h before OVA-challenge. 48 h later, OVA-challenged or non-challenged animals were anaesthetized and bronchoalveolar lavage (BAL) was performed using 3×4 ml BAL buffer per animal. The number of total cells and eosinophils in the BAL fluid, and the concentration of protein in the cell-free BAL fluid were determined. Drug-induced relative changes were calculated and statistically analyzed by the Jonckheere Terpstra test.

PDE3 = PDE3 inhibition (PDE3/4 IC50); type: biochemical; conditions: first value of PDE3/4 pair
PDE4 = PDE4 inhibition (PDE3/4 IC50); type: biochemical; conditions: second value of PDE3/4 pair

Row | SMILES | effect on cell infiltration and protein accumulation in BAL fluid, in words [1] | IC50 (PDE3) [nM] | IC50 (PDE4) [nM]
1 | OCc1cc(C(O)CNCCCCCCOCCCCc2ccccc2)ccc1O (single isomer, unassigned; (+)) [Salmeterol, (+)-4-hydroxy-α^1-[[[6-(4-phenylbutoxy)hexyl]amino]methyl]-1,3-benzenedimethanol] | exhibited inhibitory effects | – | –
2 | CCOc1cc2c(cc1OC)C(c1ccc(C(=O)N(C(C)C)C(C)C)cc1)=N[C@@H]1CCN(C)C[C@H]21 [Pumafentrine] | did not show any significant effects | 28 | 7
3 | O=C(Nc1c(Cl)cncc1Cl)c1ccc(OC(F)F)c(OCC2CC2)c1 [Roflumilast] | did not show any significant effects | > 10000 | 0.7
